# Patent US20110060156A1, “Pyruvate Derivatives with Neuroprotective Effect, Process for Preparing the Same and Pharmaceutical Composition Comprising the Same” (S.H. PHARMA., LTD., priority 2008, published 2011)
# Counter-ions that a name gives are not always drawn.
# Assays:
# [1] = test system: model of focal ischemic stroke (middle cerebral artery occlusion, MCAO); assay: Cerebral infarction inhibition in animal model of focal ischemic stroke (MCAO 1 hour, TTC staining, infarct volume); assay type: in vivo, rat; settings: for inhibition effect of cerebral infarction: 30 minutes before MCAO (1 hour)
# Description: A model of focal ischemic stroke in the rat according to the Longa's method (1989) was used. The animal model of stroke was established by occluding the middle cerebral artery (MCA) for 1 hour using nylon suture (middle cerebral artery occlusion, MCAO). In order to investigate the effect of pyruvate derivatives according to the present invention on cerebral ischemia, a rat was decapitated after reperfusion. The whole brain was sliced into 2 mm-thick coronal slices. The slices were immediately stained by immersing in 1% 2,3,5-triphenyl tetrazolium chloride (TTC). After keeping in 4% paraformaldehyde solution at 37° C. for 15 minutes, the brain slices were subjected to measurement and analysis using Quantity One software (Bio-Rad, Hercules, Calif., USA).
# [2] = test system: stroke animal model (ischemia-reperfusion); settings: cited from earlier work
# [3] = 10 mg/kg intravenously, 6 hours after reperfusion
# [4] = 1 mg/kg intravenously, 6 hours after reperfusion
# [5] = 1 mg/kg intravenously, 12 hours after reperfusion
# [6] = 5 mg/kg intravenously, 6 hours after reperfusion
# [7] = 5 mg/kg intravenously, 12 hours after reperfusion
# [8] = 10 mg/kg intravenously, 12 hours after reperfusion
smiles,measurement,setting,value
CC(=O)C(=O)Oc1cc(C(F)(F)F)ccc1C(=O)O (as salt: potassium) [2-(2-oxopropanoyloxy)-4-(trifluoromethyl)benzoic acid],melting point,,163 °C
CC(=O)C(=O)Oc1cc(C(F)(F)F)ccc1C(=O)O [2-(2-oxopropanoyloxy)-4-(trifluoromethyl)benzoic acid],inhibition effect of cerebral infarction as compared to the control group,"[1]; 5 mg/kg intravenously, MCAO 1 hour, time not stated in b180 (FIG. 8: 6 hours following MCAO)",71.3%
CC(=O)C(=O)NCCC(Oc1ccc(C(F)(F)F)cc1)c1ccccc1 (stereo not shown) [2-oxo-N-(3-phenyl-3-(4-(trifluoromethyl)phenoxy)propyl)propanamide],"infarct volume reduced to, as compared to the control group",[1]; [3],58.7%
CCOC(=O)C(C)=O [ethyl pyruvate],infarct size reduced to,[2]; abdominally administered within 12 hours after ischemia-reperfusion,≤ 50%
same,infarct size reduced by,[2]; treatment within 24 hours,about 20%
CC(=O)C(=O)Oc1ccccc1C(=O)O [2-(2-oxopropanoyloxy)benzoic acid],inhibition effect of cerebral infarction,[1]; 1 mg/kg intravenously,42.0%
same,change in the infarct volume,[1]; [4],no change
same,change in the infarct volume,[1]; [5],no change
same,inhibition effect of cerebral infarction,[1]; 5 mg/kg intravenously,90.2%
same,"infarct volume reduced to, as compared to the control group",[1]; [6],47.5%
same,"infarct volume reduced to, as compared to the control group",[1]; [7],57.4%
same,inhibition effect of cerebral infarction,[1]; 10 mg/kg intravenously,89.5%
same,"infarct volume reduced to, as compared to the control group",[1]; [3],26.6%
same,"infarct volume reduced to, as compared to the control group",[1]; [8],64.3%
"CC(=O)C(=O)Oc1ccc(NCc2c(F)c(F)c(C(F)(F)F)c(F)c2F)cc1C(=O)O [2-(2-oxopropanoyloxy)-5-(2,3,5,6-tetrafluoro-4-(trifluoromethyl)benzylamino)benzoic acid]",melting point,,128 °C
same,inhibition effect of cerebral infarction,[1]; 1 mg/kg intravenously,20.2%
same,change in the infarct volume,[1]; [4],no change
same,change in the infarct volume,[1]; [5],no change
same,inhibition effect of cerebral infarction,[1]; 5 mg/kg intravenously,90.9%
same,"infarct volume reduced to, as compared to the control group",[1]; [6],24.5%
same,"infarct volume reduced to, as compared to the control group",[1]; [7],56.8%
same,inhibition effect of cerebral infarction,[1]; 10 mg/kg intravenously,88.4%
same,"infarct volume reduced to, as compared to the control group",[1]; [3],33.3%
same,"infarct volume reduced to, as compared to the control group",[1]; [8],62.4%
CC(=O)C(=O)N(C)CCC(Oc1ccc(C(F)(F)F)cc1)c1ccccc1 (stereo not shown) [N-methyl-2-oxo-N-(3-phenyl-3-(4-(trifluoromethyl)phenoxy)propyl)propanamide],"infarct volume reduced to, as compared to the control group",[1]; [3],16.0%
